Experimental data published in patent US20080076739A1, “Methods for treating arthritis using triheterocyclic compounds” (Gemin X Biotechnologies Inc., priority 2005, published 2008).
Where a name gives a salt, the structure may show the parent alone. Read-outs that look alike come from different tables or passages of the source. One block for each compound: values may come before it.

Key:
[1] = tested on: C33A cervical carcinoma cells; assay: Cell viability by cellular ATP levels (ViaLight), C33A; format: cell-based; conditions: Homo sapiens
Protocol: (§1) One day after plating, the cells were treated with various concentrations of Compound 1 Tartrate. Stock solutions of the Compound 1 Tartrate were prepared in dimethyl sulfoxide (Sigma-Aldrich Inc., St. Louis, Mo., USA), diluted in the recommended media and then added to the cells. The total dimethyl sulfoxide on the cells was 1%. […] The results were plotted relative to untreated control cells, which were set at a value of 100.
(§2) As depicted in Table 4, these compounds were efficient in decreasing cellular ATP levels in H1299 and C33A cancer cell lines. […], these compounds are believed to have utility in the in vivo methods of the invention, i.e., treatment and prevention of cancer and viral infections, respectively. It should be noted that, although this cell-based assay is believed to be indicative of anti-oncogenic activity in vivo, it is not the only useful assay for evaluating the anti-oncogenic activity of Triheterocyclic Compounds of the invention. In addition, the anti-viral and other biological activity of compounds of the invention can be determined and evaluated in other assay systems known to the skilled artisan.

[2] = tested on: PC-3 human prostatic carcinoma cell line; assay: Cell viability by cellular ATP levels (ViaLight), PC-3; format: cell-based; conditions: PC-3, Prostate, ATP levels 72 h post-treatment, read-out: IC50 of Compound 1 tartrate
Protocol: as §1

[3] = tested on: OVCAR-3 human ovarian carcinoma cell line; assay: Cell viability by cellular ATP levels (ViaLight), OVCAR-3; format: cell-based; conditions: OVCAR-3, Ovary, ATP levels 72 h post-treatment, read-out: IC50 of Compound 1 tartrate
Protocol: as §1

[4] = tested on: H460 non-small cell lung cancer cell line; assay: Cell viability by cellular ATP levels (ViaLight), H460; format: cell-based; conditions: Homo sapiens, NCI-H460; H460, NSCLC; ATP levels 72 h post-treatment; read-out: IC50 of Compound 1 tartrate
Protocol: as §1

[5] = tested on: A549 human lung carcinoma cell line; assay: Cell viability by cellular ATP levels (ViaLight), A549; format: cell-based; conditions: A549, NSCLC, ATP levels 72 h post-treatment, read-out: IC50 of Compound 1 tartrate
Protocol: as §1

[6] = tested on: H1299 human non-small cell lung cancer cells; assay: Cell viability by cellular ATP levels (ViaLight), H1299; format: cell-based
Protocol: as §1, §2

[7] = tested on: ADR-RES human breast cancer cell line; assay: Cell viability by cellular ATP levels (ViaLight), NCI/ADR-RES; format: cell-based; conditions: Breast (multi-drug resistant), ATP levels 72 h post-treatment, read-out: IC50 of Compound 1 tartrate
Protocol: as §1

[8] = tested on: MCF-7 human breast cancer cell line; assay: Cell viability by cellular ATP levels (ViaLight), MCF-7; format: cell-based; conditions: MCF7, MCF-7, Breast, ATP levels 72 h post-treatment, read-out: IC50 of Compound 1 tartrate
Protocol: as §1

[9] = tested on: SW-480 human adenocarcinoma cell line; assay: Cell viability by cellular ATP levels (ViaLight), SW-480; format: cell-based; conditions: SW480, SW-480, Colorectal, ATP levels 72 h post-treatment, read-out: IC50 of Compound 1 tartrate
Protocol: as §1

[10] = tested on: B16-F1 mouse melanoma cell line; assay: Cell viability by cellular ATP levels (ViaLight), B16-F1; format: cell-based; conditions: B16-F1, Murine Melanoma, ATP levels 72 h post-treatment, read-out: IC50 of Compound 1 tartrate
Protocol: as §1

[11] = tested on: HMEC normal mammary epithelial cells; assay: Cell viability by cellular ATP levels (ViaLight), HMEC; format: cell-based; conditions: Homo sapiens, Normal Breast, ATP levels 72 h post-treatment, read-out: IC50 of Compound 1 tartrate
Protocol: as §1

[12] = tested on: cancer cell lines H1299 and C33A; normal cell lines HMEC and MRC-5; assay: Cellular ATP levels, cancer cell lines compared with normal cell lines; format: cell-based
Protocol: as §1

[13] = tested on: C33A human cervical cancer cells; assay: Growth of C33A cervical tumors in SCID mice; format: in vivo, CB17 SCID/SCID mice; conditions: 4.5 mg/kg IV once a day for five days (FIG. 3)
Protocol: Viability was examined by staining with trypan blue (Gibco, NY, USA) and only flasks with cell viability greater than 95% were used for in vivo studies.
(§3) There were three treatment groups of ten mice each: (a) a negative control group, (b) a positive control group and (c) a group treated with Compound 1 Tartrate.
(§4) Treatments started on day fourteen after C33A cells transplantation. Compound 1 Tartrate was administered IV once daily for five consecutive days at a dose of 4.5 mg/kg. Compound 1 Tartrate was prepared fresh daily in a vehicle solution of 5% Dextrose (Abbot Laboratories, QC, Canada) and 2% polysorbate 20 (Sigma, St. Louis, Mo., USA). The negative control group was treated with vehicle alone. The injection volume for both Compound 1 Tartrate group and the negative control group was 150 μl.
(§5) Observation continued for 40 days after initial tumor implantation.

[14] = Body weight and deaths of SCID mice bearing C33A tumors; format: in vivo, CB17 SCID/SCID mice; conditions: cisplatin 4 mg/kg IP; days 29 and 32, group of ten mice
Protocol: as §3, §4, §5

[15] = Solubility (filtration, LC/MS)
Protocol: To determine whether a compound is soluble in a solution, the solution was filtered on 0.2 μM polytetrafluoroethylene filters (Whatman Inc. Clifton, N.J., USA) and the compound concentration in the filtrate was measured by LC/MS and compared to the expected concentration.
The column used was XTerra MS C18: 50×2.1 mm, 3.5 mm column at 20° C. Samples were injected and separated under the following conditions: The mobile phase “A” consisted of 5 mM ammonium formate, 0.1% formic acid in water and mobile phase “B” consisted of 5 mM ammonium formate, 0.1% formic acid in methanol. […] The Mass Spectrometer system consisted of a Waters ZQ2000 single quadrupole mass spectrometer (Waters, Milford, Mass., USA) equipped with an Electrospray Ionization Source (ES). The mass detector was operated in positive ion mode (ES+) and Selected Ion Recording mode (SIR). Compounds were detected at m/z equal to their respective molecular weight plus 1.

[16] = target: T1, human placental alkaline phosphatase (Homo sapiens, UniProt P05187); assay: Conversion of phosphate pro-drug by human placental alkaline phosphatase; format: in vitro ADME; conditions: 15 μM, 0.02 U/100 μL enzyme, pH 7.4, up to 120 minutes (FIG. 4)
T1 construct: purchased Sigma-Aldrich Canada Ltd
T1 sequence (P05187 23-506): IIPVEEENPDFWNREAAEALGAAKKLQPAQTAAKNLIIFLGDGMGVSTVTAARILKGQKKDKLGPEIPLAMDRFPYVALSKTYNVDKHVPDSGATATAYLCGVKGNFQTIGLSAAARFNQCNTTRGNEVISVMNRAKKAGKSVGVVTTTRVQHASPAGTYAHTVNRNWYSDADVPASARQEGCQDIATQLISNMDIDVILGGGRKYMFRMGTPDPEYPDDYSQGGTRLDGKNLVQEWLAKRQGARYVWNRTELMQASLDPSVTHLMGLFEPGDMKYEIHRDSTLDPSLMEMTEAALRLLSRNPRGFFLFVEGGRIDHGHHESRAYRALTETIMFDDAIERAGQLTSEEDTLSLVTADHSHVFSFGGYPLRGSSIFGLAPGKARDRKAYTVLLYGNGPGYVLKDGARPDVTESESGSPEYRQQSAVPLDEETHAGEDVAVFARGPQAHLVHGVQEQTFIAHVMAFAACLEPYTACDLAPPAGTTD
Protocol: (§6) The conversion into biologically active drug of phosphate pro-drugs by calf intestinal alkaline phosphatase and human placental alkaline phosphatase was measured in vitro using purified enzymes. Purified calf intestinal alkaline phosphatase (Roche Diagnostic Inc. Laval, Quebec, Canada) or human placental alkaline phosphatase (Sigma-Aldrich Canada Ltd. Oakville, Ontario, Canada) was added at a concentration of 0.02 U/100 μL to a solution containing 15 μM of Compound 66, 20 mM Tris-HCl, pH 7.4 and 0.9% NaCl. The solutions were incubated for 30, 60 or 120 minutes. A solution containing 15 μM of Compound 66, 20 mM Tris-HCl, pH 7.4 and 0.9% NaCl was used as a reference (time=0 minutes). To each solution, an equal volume (100 μL) of ice-cold acetonitrile was added, and then the mixture was vortexed and transferred to glass vials. A standard concentration curve of the pro-drug and the drug was prepared in 10 mM Tris-HCl, pH 7.4, 0.45% NaCl and 50% acetonitrile. All samples were immediately analyzed by LC/MS.

[17] = target: T2, calf intestinal alkaline phosphatase (Bos taurus, UniProt P19111); assay: Conversion of phosphate pro-drug by calf intestinal alkaline phosphatase; format: in vitro ADME; conditions: 15 μM, 0.02 U/100 μL enzyme, pH 7.4, up to 120 minutes (FIG. 5)
T2 construct: purchased Roche Diagnostic Inc
T2 sequence (P19111 20-506): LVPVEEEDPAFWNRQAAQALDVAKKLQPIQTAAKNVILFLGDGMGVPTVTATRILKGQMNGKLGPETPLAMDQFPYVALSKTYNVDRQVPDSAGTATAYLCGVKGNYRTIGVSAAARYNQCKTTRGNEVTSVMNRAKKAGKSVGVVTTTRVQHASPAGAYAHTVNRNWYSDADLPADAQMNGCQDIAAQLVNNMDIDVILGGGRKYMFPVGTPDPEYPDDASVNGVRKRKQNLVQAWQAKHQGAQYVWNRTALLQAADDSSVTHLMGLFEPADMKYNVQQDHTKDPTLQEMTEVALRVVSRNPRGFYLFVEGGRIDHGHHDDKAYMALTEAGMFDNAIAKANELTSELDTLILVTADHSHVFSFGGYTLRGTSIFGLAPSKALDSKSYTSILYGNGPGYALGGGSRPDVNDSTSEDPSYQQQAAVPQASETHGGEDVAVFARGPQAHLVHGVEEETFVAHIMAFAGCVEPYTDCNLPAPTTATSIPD
Protocol: as §6

[18] = tested on: human prostatic adenocarcinoma cancer PC3 cells; assay: Growth of PC3 prostatic tumors in SCID mice; format: in vivo; conditions: 5 consecutive intravenous injections; Compound 1 Mesylate Salt 4.84 μMoles/Kg; Compound 66 4.84 or 14.51 μMoles/Kg (FIG. 6)
Protocol: The human prostatic adenocarcinoma cancer PC3 cells were purchased from the American Type Culture Collection (ATCC). These cells were confirmed to be free of mycoplasma infection. Cells were maintained in the Roswell Park Memorial Institute (RPMI), supplemented with 10% inactivated fetal bovine serum and 1% penicillin-streptomycin-L-Glutamine, under 5% carbon dioxide (CO2) at 37° C. For prostatic-tumor induction, cells were grown lower than 70% confluence in complete medium and then collected with trypsin (Bio Whittaker, Rockland, Me., USA). Cells were then centrifuged and washed 2 times in phosphate buffer solution (PBS) and resuspended in PBS at 1.5×10^6 cells/0.1 mL. PC3 cells were then transplanted subcutaneously into the flank of SCID mice (Charles River Laboratories, Wilmington, Mass., USA), as a suspension of tumor cells (1.5×10^6 cells in 100 μL PBS), under a laminar airflow hood. Eleven (11) days later, the size of each tumor was measured. […] Relative tumor size and volume was calculated as follows: length (cm)×[width (cm)]^2/2. […]

[19] = Shelf stability (precipitation) of formulated compound; format: physicochemical; conditions: 72 hours after preparation; 0.6 mg/mL in 9.6% polyethylene glycol 300, 0.4% polysorbate 20 and 5% dextrose
Protocol: Compound 1 Tartrate salt solubility is equal to 0.1 mg/mL. […] This increase in solubility has a positive impact on the shelf stability of formulated Compound 1.

[20] = C-33-A, C33A, cellular ATP levels as in Example 2, read-out: IC50 (μM) C33A, Effect on Cancer Cells Viability
[21] = NCI-H1299, H1299, cellular ATP levels as in Example 2, read-out: IC50 (μM) H1299, Effect on Cancer Cells Viability
[22] = C-33-A, read-out: IC50 (μM) C33A, Effect on Cancer Cells Viability
[23] = NCI-H1299, read-out: IC50 (μM) H1299, Effect on Cancer Cells Viability

SMILES: COC1=CC(c2cc3ccccc3[nH]2)=N/C1=C\c1[nH]c(C)cc1C [Compound 1 tartrate]
IC50 ([1]; C-33A, Cervix, ATP levels 72 h post-treatment compared to untreated cells, read-out: IC50 of Compound 1 tartrate): 0.2 µM | IC50 [2]: 200 nM | IC50 [3]: 200 nM | IC50 [4]: 300 nM | IC50 [5]: 400 nM | IC50 ([6]; NCI-H1299, H1299, NSCLC, ATP levels 72 h post-treatment, read-out: IC50 of Compound 1 tartrate): 0.5 µM | IC50 [7]: 400 nM | IC50 [8]: 600 nM | IC50 [9]: 200 nM | IC50 [10]: 60 nM | IC50 [11]: 4000 nM | Lowering of ATP levels in cancer cell lines H1299 and C33A compared with normal cell lines HMEC and MRC-5 ([12]; 0.5 μM, 72 hours after treatment (FIG. 1)): significantly more effective at lowering ATP levels | Efficacy in decreasing cellular ATP levels, cancer cell lines versus HMEC ([12]; various concentrations, ten cancer cell lines versus HMEC normal mammary epithelial cell line): greater efficacy in decreasing cellular ATP levels in the cancer cell lines | Reduction in tumor growth compared to vehicle [13]: statistically significant (p<0.0001) reduction in tumor growth

SMILES: N.N.[Cl][Pt][Cl] [cisplatin]
Deaths [14]: Two mice died

SMILES: CCOC(=O)COC1=CC(c2cc3ccccc3[nH]2)=N/C1=C\c1[nH]c(C)cc1C [Compound 53]
IC50 [1, 22]: 10.2 µM | IC50 [6, 23]: 10.6 µM

SMILES: COC1=CC(c2cc3ccccc3n2C(=O)CC(C)(C)c2c(C)cccc2OP(=O)(O)O)=N/C1=C/c1[nH]c(C)cc1C [Compound 66]
Conversion of pro-drug into Compound 1 [16]: convert a fraction of the pro-drug | Conversion of pro-drug into Compound 1 [17]: convert a fraction of the pro-drug | Growth of prostatic tumors in mice [18]: significantly reduce the growth of prostatic tumors | Solubility, fold greater than Compound 1 Tartrate [15]: 100 fold

SMILES: COC(=O)CCc1c(C)[nH]c(/C=C2/N=C(c3cc4ccccc4[nH]3)C=C2OC)c1C [Compound 63]
IC50 [1, 22]: 0.548 µM | IC50 [6, 23]: 0.753 µM

SMILES: COC1=CC(c2cc3ccccc3[nH]2)=N/C1=C\c1[nH]c(C)cc1C [Compound 1 Mesylate Salt]
Precipitation of the formulation [19]: no evidence of precipitation | Growth of prostatic tumors in mice [18]: significantly reduce the growth of prostatic tumors

Results, then the compound that gave them:

IC50 [1, 20]: 1.11 µM | IC50 [6, 21]: 1.04 µM
SMILES: COC1=CC(c2cc3ccccc3n2C(=O)Nc2ccc(N(C)C)cc2)=N/C1=C/c1[nH]c(C)cc1C [Compound 52]

Solubility in water (in words) ([15]; water): poorly soluble in water
SMILES: COC1=CC(c2cc3ccccc3[nH]2)=N/C1=C\c1[nH]c(C)cc1C [Compound 1]

IC50 [1, 20]: 0.93 µM | IC50 [6, 21]: 1.11 µM
SMILES: COc1ccc(NC2=CC(c3cc4ccccc4[nH]3)=N/C2=C\c2[nH]c(C)cc2C)cc1 [Compound 61]
